Test results published in patent publication EP0339504A2, “Human immunodeficiency virus (HIV) env-coded peptide capable of eliciting HIV-inhibiting antibodies in mammals” (priority 1988, dated 1989).

Columns and labels:
[1] = test system: antibodies from human HIV-1 seropositive serum samples; experiment: ELISA detection of binding of human antibodies to immobilized synthetic peptides; conditions: wells blocked with diluent 1 hour before use
Description: Synthetic peptides were immobilized directly on Immulon®-II microtiter plates using glutaraldehyde. The plates were activated with 2% glutaraldehyde for 2 hrs at room temperature or 0.1% glutaraldehyde for 30 min and rinsed with deionized water. Two conditions of glutaraldehyde treatment were used routinely; the 2% glutaraldehyde was used to ensure adequate binding of the peptide to the plate and the 0.1% glutaraldehyde to avoid alteration of the binding sites. Peptide solutions of 100 µl containing 10 µg/ml in 60 mM bicarbonate buffer, pH 9.6, were added per well and incubated overnight at 4°C. The plates were washed and blocked with PBST (phosphate buffered saline + 0.05% Tween® 10) for 1 hr at 37°C and stored dry at 4°C.
This procedure was used to assure immobilization of the peptide to the microtiter plate. The peptide-HSA conjugate was immobilized on the microtiter plate well using the procedure above, except that glutaraldehyde was not included in the reaction.
Immediately before use, where indicated, the plates were blocked again with 100 µl of diluent (PBST + 5% bovine serum albumin + 20% heat inactivated normal goat serum + 0.1% sodium azide + 0.05% thimerosal) for 30 to 60 min at 37°C. […] The optical density or absorbance of the reaction was determined using a microtiter plate reader. […]

guinea pigs = experiment: Immunization of guinea pigs with peptide-carrier protein conjugate; anti-peptide antibodies by ELISA; assay type: in vivo, guinea pig
Description: Peptides were conjugated to either ovalbumin or keyhole limpet hemocyanin prior to immunization. For ELISA studies, human serum albumin (HSA) was used as the carrier protein. Carrier protein (2 mg/ml) was activated with 0.5% glutaraldehyde for 30 to 60 min at room temperature, then an equal volume of the peptide solution (2 mg/ml in dimethylsulfoxide) was added. The reaction took place overnight at 4°C, following which the reaction mixture was dialyzed overnight against deionized water or 0.1 M glycine, pH 7.0 in the case of human serum albumin.
Guinea pigs and rabbits were immunized following standard immunization protocols. Guinea pigs and rabbits were immunized initially with 100 to 200 µg of the peptide-carrier protein conjugate in complete Freund's adjuvant, and boosted using half the amount of peptide-carrier protein conjugate in incomplete Freund's adjuvant every two weeks thereafter. Serum samples were obtained at every other boost.
All of the peptides listed in Table 1 were conjugated to a carrier protein (either keyhole limpet hemocyanin or ovalbumin) and each peptide-carrier protein conjugate was used to immunize two guinea pigs. Guinea pigs were selected as a convenient test animal system. The resultant guinea pig antiserum samples were monitored for anti-peptide reactivity using ELISA procedures. […] A time point of six months was selected for testing the antiviral (i.e, HIV neutralizing and cell fusion-blocking) characteristics of the guinea pig antisera.
Although different levels of antibodies were produced, there was no case where only one animal from the pair produced antibodies.

[2] = test system: CEM cells chronically infected with HIV-1 IIIB; experiment: Cell fusion assay with anti-peptide sera (giant cell count); assay type: cell-based; conditions: 1:10 serum dilution, control sera 50,65
Description: Briefly, 5000 CEM cells chronically infected with HIV-1 IIIB or HIV-1 RF were mixed with 75,000 Molt 4 cells in a volume of 100 µl in a 96 well half-area plate. Final dilution of sera in the assay was 1 to 20. Twenty-four hours later giant cells were visually enumerated at a 40x magnification.

HIV-1 IIIB = experiment: HIV neutralization assay with anti-peptide sera (p24 antigen in Molt 4 culture supernatant); assay type: cell-based; conditions: Molt 4 cells, day six
Description: Approximately 500 TCID₅₀ infectious units of HIV-1 IIIB or HIV-1 RF in 25 µl were mixed and incubated with serum dilutions (25 µl) for 30 min at 37°C. Molt 4 cells (4x10⁴) were added in a volume of 100 µl and incubation continued for six days at 37°C. The final dilution of the serum sample was 1 to 20. The total volume of each culture was doubled daily by addition of fresh medium (RPMI + 20% fetal calf serum). On day six, 100 µl samples were taken from the supernatant and tested for the level of viral gag-coded p24 antigen using an antigen capture assay (Du Pont, Wilmington, DE).

“peptide 1-80: aa number 418 to 432 of HIV-1 IIIB env-coded protein (CRIKQIINMWQKVGK; Surface protein gp120; UniProt P04578 418-432, looked up, fragment)” was tested, and the “HIV SEROPOSITIVE SERA Number of Peptide ELISA Positive Sera of 37 Tested” value ([1]; positive = ELISA absorbance greater than 0.2) was 14, the “HIV SEROPOSITIVE SERA Positive Sera Average Absorbance ± SD” value ([1]; positive = absorbance greater than 0.2) was 0.34 ± 0.24 and the “LIMITING DILUTION” value (guinea pigs; anti-peptide ELISA of guinea pig antiserum, 6 month bleed, dilution at which an absorbance of 0.1 would be obtained, one row per animal) was 30. For the same substance, the “level of anti-peptide antibodies elicited (in words)” value (guinea pigs; by 6 months following the first immunization) was “elicited very low levels of anti-peptide antibodies”, the “LIMITING DILUTION” value (guinea pigs; rows marked + : guinea pig antiserum, 2-5 month bleed, dilution giving absorbance 0.1) was under 20 and the “FUSION ASSAY (number of giant cells formed)” value ([2]; guinea pig antiserum, 6 month bleed, two counts per cell separated by a comma (no decimal)) was 63,66. For the same substance, the “FUSION ASSAY (number of giant cells formed)” value ([2]; rows marked + : guinea pig antiserum, 2-5 month bleed, two counts separated by a comma) was 54,53, the “NEUTRALIZATION ACTIVITY (quantity of p24 present in the supernatant)” value (HIV-1 IIIB; guinea pig antiserum, 6 month bleed) was 800 ng/mL and the “NEUTRALIZATION ACTIVITY (quantity of p24 present in the supernatant)” value (HIV-1 IIIB; rows marked + : guinea pig antiserum, 2-5 month bleed) was over 800 ng/mL.
